Data set [1] can be described thus: Half-life was measured in the presence of NADPH at 20 uM. The format is ADME.
For data set [2], the target named is Trypanothione reductase (Trypanosoma cruzi) (UniProt P28593). As to the kind of experiment: Tested for inhibition of NADPH-reduced trypanothione reductase (TR).
Data set [3] is described as follows: Half-life was measured in the presence of NADPH at 20 uM; No inhibition. The format is ADME.
For data set [4], the target named is Trypanothione reductase (Trypanosoma cruzi) (UniProt P28593). As to the kind of experiment: Tested for inhibition of NADPH-reduced trypanothione reductase (TR); No inhibition.

From ChEMBL document CHEMBL1133550, “(2,2':6',2"-Terpyridine)platinum(II) complexes are irreversible inhibitors of Trypanosoma cruzi trypanothione reductase but not of human glutathione reductase” (J Med Chem, 2000) come the findings set out here.

Active and inactive are the calls of the source. The rule behind the calls is not given here.

UniProt P28593, sequence (P28593 whole entry, looked up): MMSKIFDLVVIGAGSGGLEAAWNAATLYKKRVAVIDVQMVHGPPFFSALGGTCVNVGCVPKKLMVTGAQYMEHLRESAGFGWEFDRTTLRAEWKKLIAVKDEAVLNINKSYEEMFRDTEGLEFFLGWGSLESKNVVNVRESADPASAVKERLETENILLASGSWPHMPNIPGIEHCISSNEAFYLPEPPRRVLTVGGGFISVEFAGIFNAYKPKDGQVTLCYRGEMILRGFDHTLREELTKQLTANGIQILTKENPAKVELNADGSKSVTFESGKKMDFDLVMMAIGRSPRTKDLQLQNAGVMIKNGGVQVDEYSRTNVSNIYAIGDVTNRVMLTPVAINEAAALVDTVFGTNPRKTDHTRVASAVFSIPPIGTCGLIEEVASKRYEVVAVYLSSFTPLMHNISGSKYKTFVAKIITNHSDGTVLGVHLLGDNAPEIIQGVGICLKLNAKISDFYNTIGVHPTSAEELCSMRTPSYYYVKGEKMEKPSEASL

In the case of “(2-Hydroxyethanethiolato)(2,2':6'2''-terpyridine)platinum (II) Nitrate [listing 1 of 2 here]”, the T1/2 in data set [1] is listed as 35 min.

Turning to “(2-Hydroxyethanethiolato)(2,2':6'2''-terpyridine)platinum (II) Nitrate [listing 2 of 2 here]”, the K obs in data set [2] came to 40 M⁻¹ s⁻¹.

Turning to “(4-Picoline)(2,2':6'2''-terpyridine)platinum (II) Bis (tetrafluoroborate) [listing 1 of 2 here]”, in data set [1], the T1/2 was 11 min.

Consider “(4-Picoline)(2,2':6'2''-terpyridine)platinum (II) Bis (tetrafluoroborate) [listing 2 of 2 here]”, for which, in data set [2], the K obs came out at 85 M⁻¹ s⁻¹.

Consider “(S-Glutathionato)-(4'-Chloro-2,2':6'2''-terpyridine)platinum (II) Nitrate [listing 1 of 2 here]”, for which, in data set [3], the NI entry is recorded as “Not Active”.

Turning to “(S-Glutathionato)-(4'-Chloro-2,2':6'2''-terpyridine)platinum (II) Nitrate [listing 2 of 2 here]”, in data set [4], the NI result is “inactive”.
